Target: T1, HIV integrase (Human immunodeficiency virus type 1 group M subtype B, UniProt P12497, F1332H)
T1 construct: HIV integrase full length gene; made in house; host or cells: Escherichia coli BL21(DE3)
Assay: Determination of enzyme (HIV integrase) inhibitory activity (strand transfer, microtiter plate, absorbance at 450 nm)
Format: biochemical, HIV (Human Immunodeficiency Virus (type 1))
Settings: recombinant HIV integrase (F185H) expressed in E. coli; donor DNA on streptavidin plate, digoxigenin target DNA; 37° C.

SMILES | IC50
CCOc1cc2c(cc1Cc1cccc(Cl)c1F)c(=O)c(C(=O)O)cn2[C@@H](C)CO [Example 3-61, (S)-6-(3-Chloro-2-fluorobenzyl)-7-ethoxy-1-(2-hydroxy-1-methylethyl)-4-oxo-1,4-dihydroquinoline-3-carboxylic acid] | 7.6 nM
CN(C)c1cc2c(cc1Cc1cccc(Cl)c1F)c(=O)c(C(=O)O)cn2CCO [Example 3-62, 6-(3-Chloro-2-fluorobenzyl)-7-dimethylamino-1-(2-hydroxyethyl)-4-oxo-1,4-dihydroquinoline-3-carboxylic acid] | 27 nM
O=C(O)c1cn(CCO)c2cc(OCC3CCCCC3)c(Cc3cccc(Cl)c3F)cc2c1=O [Example 3-63, 6-(3-Chloro-2-fluorobenzyl)-7-cyclohexylmethoxy-1-(2-hydroxyethyl)-4-oxo-1,4-dihydroquinoline-3-carboxylic acid] | 17 nM
CCN(CC)c1cc(Cc2cccc(Cl)c2F)cc2c(=O)c(C(=O)O)cn(CCO)c12 [Example 3-64, 6-(3-Chloro-2-fluorobenzyl)-8-diethylamino-1-(2-hydroxyethyl)-4-oxo-1,4-dihydroquinoline-3-carboxylic acid] | 18 nM
CNc1cc2c(cc1Cc1cccc(Cl)c1F)c(=O)c(C(=O)O)cn2CCO [Example 3-65, 6-(3-Chloro-2-fluorobenzyl)-7-methylamino-1-(2-hydroxyethyl)-4-oxo-1,4-dihydroquinoline-3-carboxylic acid] | 15 nM
O=C(O)c1cn(CCO)c2cc(N3CCCC3)c(Cc3cccc(Cl)c3F)cc2c1=O [Example 3-66, 6-(3-Chloro-2-fluorobenzyl)-1-(2-hydroxyethyl)-4-oxo-7-pyrrolidin-1-yl-1,4-dihydroquinoline-3-carboxylic acid] | 48 nM
CCOc1cc(Cc2cccc(Cl)c2F)cc2c(=O)c(C(=O)O)cn([C@@H](C)CO)c12 [Example 3-67, (S)-6-(3-Chloro-2-fluorobenzyl)-8-ethoxy-1-(2-hydroxy-1-methylethyl)-4-oxo-1,4-dihydroquinoline-3-carboxylic acid] | 6.4 nM
O=C(O)c1cn(CCO)c2c(OCC3CCCCC3)cc(Cc3cccc(Cl)c3F)cc2c1=O [Example 3-69, 6-(3-Chloro-2-fluorobenzyl)-8-cyclohexylmethoxy-1-(2-hydroxyethyl)-4-oxo-1,4-dihydroquinoline-3-carboxylic acid] | 4.3 nM
CC[C@@H](CO)n1cc(C(=O)O)c(=O)c2cc(Cc3cccc(Cl)c3F)c(OC(C)C)cc21 [Example 3-72, (S)-6-(3-Chloro-2-fluorobenzyl)-1-[1-(hydroxymethyl)propyl]-7-isopropyloxy-4-oxo-1,4-dihydroquinoline-3-carboxylic acid] | 3.8 nM
CC[C@@H](CO)n1cc(C(=O)O)c(=O)c2cc(Cc3cccc(Cl)c3F)c(OC)cc21 [Example 3-73, (S)-6-(3-Chloro-2-fluorobenzyl)-1-[1-(hydroxymethyl)propyl]-7-methoxy-4-oxo-1,4-dihydroquinoline-3-carboxylic acid] | 3.3 nM
CC(C)Oc1cc2c(cc1Cc1cccc(Cl)c1F)c(=O)c(C(=O)O)cn2[C@@H](C)CO [Example 3-74] | 4.9 nM
O=C(O)c1cn(CCO)c2cc(OCCO)c(Cc3cccc(Cl)c3F)cc2c1=O [Example 3-76, 6-(3-Chloro-2-fluorobenzyl)-1-(2-hydroxyethyl)-7-(2-hydroxyethyloxy)-4-oxo-1,4-dihydroquinoline-3-carboxylic acid] | 8.5 nM
O=C(O)c1cn(CCO)c2cc(OCCCO)c(Cc3cccc(Cl)c3F)cc2c1=O [Example 3-77, 6-(3-Chloro-2-fluorobenzyl)-1-(2-hydroxyethyl)-1-7-(3-hydroxypropyloxy)-4-oxo-1,4-dihydroquinoline-3-carboxylic acid] | 8.9 nM
O=C(O)c1cn(CCO)c2c(NCCO)cc(Cc3cccc(Cl)c3F)cc2c1=O [Example 3-78, 6-(3-Chloro-2-fluorobenzyl)-1-(2-hydroxyethyl)-8-(2-hydroxyethylamino)-4-oxo-1,4-dihydroquinoline-3-carboxylic acid] | 16 nM
CC[C@@H](CO)n1cc(C(=O)O)c(=O)c2cc(Cc3cccc(Cl)c3F)cc(OC)c21 [Example 3-79, (S)-6-(3-Chloro-2-fluorobenzyl)-1-[1-(hydroxymethyl)propyl]-8-methoxy-4-oxo-1,4-dihydroquinoline-3-carboxylic acid] | 6.7 nM
C[C@@H](CO)n1cc(C(=O)O)c(=O)c2cc(Cc3cccc(Cl)c3F)cc(N(C)C)c21 [Example 3-80, (S)-6-(3-Chloro-2-fluorobenzyl)-8-dimethylamino-1-(2-hydroxy-1-methylethyl)-4-oxo-1,4-dihydroquinoline-3-carboxylic acid] | 8.8 nM
O=C(O)c1cn(CCO)c2ncc(Cc3cccc(Cl)c3Cl)cc2c1=O [Example 3-86] | 140 nM
CS(=O)(=O)c1ccc(Cl)c(Cc2ccc3c(c2)c(=O)c(C(=O)O)cn3CCO)c1 [Example 4-1, 6-(2-Chloro-5-methanesulfonylbenzyl)-1-(2-hydroxyethyl)-4-oxo-1,4-dihydroquinoline-3-carboxylic acid] | 860 nM

SMILES | IC50
CCc1ccccc1Cc1ccc2c(c1)c(=O)c(C(=O)O)cn2CCO [Example 4-4, 6-(2-Ethylbenzyl)-1-(2-hydroxyethyl)-4-oxo-1,4-dihydroquinoline-3-carboxylic acid] | 550 nM
O=C(O)c1cn(CCO)c2ccc(Cc3cc(F)ccc3Cl)cc2c1=O [Example 4-6, 6-(2-Chloro-5-fluorobenzyl)-1-(2-hydroxyethyl)-4-oxo-1,4-dihydroquinoline-3-carboxylic acid] | 460 nM
O=C(O)c1cn(CCO)c2ccc(Cc3cc(Br)ccc3Cl)cc2c1=O [Example 4-7, 6-(5-Bromo-2-chlorobenzyl)-1-(2-hydroxyethyl)-4-oxo-1,4-dihydroquinoline-3-carboxylic acid] | 130 nM
O=C(O)c1cn(CCO)c2cc(F)c(Cc3cccc(Cl)c3Cl)cc2c1=O [Example 4-9, 6-(2,3-Dichlorobenzyl)-7-fluoro-1-(2-hydroxyethyl)-4-oxo-1,4-dihydroquinoline-3-carboxylic acid] | 21 nM
O=C(O)c1cn(CCO)c2ccc(Cc3cc(O)ccc3Cl)cc2c1=O [Example 4-11, 6-(2-Chloro-5-hydroxybenzyl)-1-(2-hydroxyethyl)-4-oxo-1,4-dihydroquinoline-3-carboxylic acid] | 220 nM
O=C(O)c1cn(CCO)c2ccc(Cc3cccc(Cl)c3Cl)c(F)c2c1=O [Example 4-12, 6-(2,3-Dichlorobenzyl)-5-fluoro-1-(2-hydroxyethyl)-4-oxo-1,4-dihydroquinoline-3-carboxylic acid] | 65 nM
CCOc1ccccc1Cc1ccc2c(c1)c(=O)c(C(=O)O)cn2CCO [Example 4-13, 6-(2-Ethoxybenzyl)-1-(2-hydroxyethyl)-4-oxo-1,4-dihydroquinoline-3-carboxylic acid] | 300 nM
Cc1cc2c(cc1Cc1cccc(Cl)c1Cl)c(=O)c(C(=O)O)cn2CCO [Example 4-15, 6-(2,3-Dichlorobenzyl)-7-methyl-1-(2-hydroxyethyl)-4-oxo-1,4-dihydroquinoline-3-carboxylic acid] | 31 nM
CC(C)Oc1cc(Cc2cccc(Cl)c2F)cc2c(=O)c(C(=O)O)cn([C@@H](C)CO)c12 [Example 4-16, (S)-6-(3-Chloro-2-fluorobenzyl)-1-(2-hydroxy-1-methylethyl)-8-isopropyloxy-4-oxo-1,4-dihydroquinoline-3-carboxylic acid] | 7.1 nM
CC[C@@H](CO)n1cc(C(=O)O)c(=O)c2cc(Cc3cccc(Cl)c3F)cc(OC(C)C)c21 [Example 4-17, (S)-6-(3-Chloro-2-fluorobenzyl)-1-[1-(hydroxymethyl)propyl]-8-isopropyloxy-4-oxo-1,4-dihydroquinoline-3-carboxylic acid] | 3.1 nM
O=C(O)c1cn([C@H](CO)C2CCCCC2)c2ccc(Cc3cccc(Cl)c3F)cc2c1=O [Example 4-18, (S)-6-(3-Chloro-2-fluorobenzyl)-1-(1-cyclohexyl-2-hydroxyethyl)-4-oxo-1,4-dihydroquinoline-3-carboxylic acid] | 2 nM
CC(C)Oc1cc2c(cc1Cc1cccc(Cl)c1F)c(=O)c(C(=O)O)cn2[C@H](CO)C(C)C [Example 4-19, (S)-6-(3-Chloro-2-fluorobenzyl)-1-(1-hydroxymethyl-2-methylpropyl)-7-isopropyloxy-4-oxo-1,4-dihydroquinoline-3-carboxylic acid] | 2.9 nM
CC(C)Oc1cc2c(cc1Cc1cccc(Cl)c1F)c(=O)c(C(=O)O)cn2[C@H](CO)C(C)(C)C [Example 4-20, (S)-6-(3-Chloro-2-fluorobenzyl)-1-[2,2-dimethyl-1-(hydroxymethyl)propyl]-7-isopropyloxy-4-oxo-1,4-dihydroquinoline-3-carboxylic acid] | 1.7 nM
CCOc1cc(Cc2cccc(Cl)c2F)cc2c(=O)c(C(=O)O)cn([C@@H](CC)CO)c12 [Example 4-21, (S)-6-(3-Chloro-2-fluorobenzyl)-8-ethoxy-1-[1-(hydroxymethyl)propyl]-4-oxo-1,4-dihydroquinoline-3-carboxylic acid] | 4.5 nM
O=C(O)c1cn([C@H](CO)CC2CCCCC2)c2ccc(Cc3cccc(Cl)c3F)cc2c1=O [Example 4-22, (S)-6-(3-Chloro-2-fluorobenzyl)-1-[2-cyclohexyl-1-(hydroxymethyl)ethyl]-4-oxo-1,4-dihydroquinoline-3-carboxylic acid] | 2.9 nM
CC(C)C[C@@H](CO)n1cc(C(=O)O)c(=O)c2cc(Cc3cccc(Cl)c3F)c(OC(C)C)cc21 [Example 4-23, (S)-6-(3-Chloro-2-fluorobenzyl)-1-(1-hydroxymethyl-3-methylbutyl)-7-isopropyloxy-4-oxo-1,4-dihydroquinoline-3-carboxylic acid] | 3.8 nM
CC(C)Oc1cc(Cc2cccc(Cl)c2F)cc2c(=O)c(C(=O)O)cn([C@H](CO)C(C)C)c12 [Example 4-24, (S)-6-(3-Chloro-2-fluorobenzyl)-1-(1-hydroxymethyl-2-methylpropyl)-8-isopropyloxy-4-oxo-1,4-dihydroquinoline-3-carboxylic acid] | 2.5 nM

Reference: patent US8232401B2 (Japan Tobacco Inc., priority 2002, dated 2012)
